Converted amounts (≈) assume the structure as drawn. Peptide text beside a SMILES is read from it.
How the values were obtained:
[1] = tested on: Acinetobacter baumannii_isolate 18 (antibiotic-resistant); type: cell-based, Acinetobacter baumannii; conditions: isolate 18 (antibiotic-resistant)
Excerpt: (§1) To compare the antimicrobial activity of the peptides prepared in <Example 1>, the minimum inhibitory concentration (MIC), […] measured. Here, the minimal inhibitory concentration (MIC) refers to the lowest concentration of a substance that prevents visible bacterial growth.
(§2) Specifically, the bacterial strains listed in Table 2 below were obtained and cultured in media suitable for each strain until the mid-log phase. The cultures were then diluted to a concentration of 2×10^4 cells/100 μL and prepared in microtiter plates (Nunc, USA). Subsequently, serial 2-fold dilutions of the peptides prepared in Example 1 were prepared, and 10 μL of each dilution was added to the wells, and the plates were incubated at 37° C. for 18 hours. Absorbance at 600 nm was measured using a microtiter plate reader (Merck ELISA reader, Germany) to determine the MIC values for each bacterial strain. The parent peptide dCATH was used as a control.

[2] = tested on: Acinetobacter baumannii_isolate 5 (antibiotic-resistant); type: cell-based, Acinetobacter baumannii; conditions: isolate 5 (antibiotic-resistant)
Excerpt: as §1, §2

[3] = tested on: Acinetobacter baumannii_isolate 8 (antibiotic-resistant); type: cell-based, Acinetobacter baumannii; conditions: isolate 8 (antibiotic-resistant)
Excerpt: as §1, §2

[4] = tested on: Acinetobacter baumannii_isolate 24 (antibiotic-resistant); type: cell-based, Acinetobacter baumannii; conditions: isolate 24 (antibiotic-resistant)
Excerpt: as §1, §2

[5] = tested on: Acinetobacter baumannii_isolate 13 (antibiotic-resistant); type: cell-based, Acinetobacter baumannii; conditions: isolate 13 (antibiotic-resistant)
Excerpt: as §1, §2

[6] = tested on: Acinetobacter baumannii_isolate15 (antibiotic-resistant); type: cell-based, Acinetobacter baumannii; conditions: isolate15 (antibiotic-resistant)
Excerpt: as §1, §2

[7] = tested on: Acinetobacter baumannii_isolate 1 (antibiotic-resistant); type: cell-based, Acinetobacter baumannii; conditions: isolate 1 (antibiotic-resistant)
Excerpt: as §1, §2

[8] = tested on: Acinetobacter baumannii_isolate 6 (antibiotic-resistant); type: cell-based, Acinetobacter baumannii; conditions: isolate 6 (antibiotic-resistant)
Excerpt: as §1, §2

[9] = tested on: Acinetobacter baumannii_isolate 19 (antibiotic-resistant); type: cell-based, Acinetobacter baumannii; conditions: isolate 19 (antibiotic-resistant)
Excerpt: as §1, §2

[10] = tested on: Acinetobacter baumannii_isolate 9 (antibiotic-resistant); type: cell-based, Acinetobacter baumannii; conditions: isolate 9 (antibiotic-resistant)
Excerpt: as §1, §2

[11] = tested on: Acinetobacter baumannii_isolate 17 (antibiotic-resistant); type: cell-based, Acinetobacter baumannii; conditions: isolate 17 (antibiotic-resistant)
Excerpt: as §1, §2

[12] = tested on: Acinetobacter baumannii_isolate 23 (antibiotic-resistant); type: cell-based, Acinetobacter baumannii; conditions: isolate 23 (antibiotic-resistant)
Excerpt: as §1, §2

[13] = tested on: Acinetobacter baumannii_isolate16 (antibiotic-resistant); type: cell-based, Acinetobacter baumannii; conditions: isolate16 (antibiotic-resistant)
Excerpt: as §1, §2

[14] = tested on: Acinetobacter baumannii_isolate 2 (antibiotic-resistant); type: cell-based, Acinetobacter baumannii; conditions: isolate 2 (antibiotic-resistant)
Excerpt: as §1, §2

[15] = tested on: Acinetobacter baumannii_isolate 14 (antibiotic-resistant); type: cell-based, Acinetobacter baumannii; conditions: isolate 14 (antibiotic-resistant)
Excerpt: as §1, §2

[16] = tested on: Acinetobacter baumannii_isolate 7 (antibiotic-resistant); type: cell-based, Acinetobacter baumannii; conditions: isolate 7 (antibiotic-resistant)
Excerpt: as §1, §2

[17] = tested on: Acinetobacter baumannii_isolate11 (antibiotic-resistant); type: cell-based, Acinetobacter baumannii; conditions: isolate11 (antibiotic-resistant)
Excerpt: as §1, §2

[18] = tested on: Acinetobacter baumannii_isolate21 (antibiotic-resistant); type: cell-based, Acinetobacter baumannii; conditions: isolate21 (antibiotic-resistant)
Excerpt: as §1, §2

[19] = tested on: Acinetobacter baumannii_isolate 26 (antibiotic-resistant); type: cell-based, Acinetobacter baumannii; conditions: isolate 26 (antibiotic-resistant)
Excerpt: as §1, §2

[20] = tested on: Pseudomonas aeruginosa ATCC 27853; type: cell-based
Excerpt: as §1, §2

[21] = tested on: Staphylococcus aureus ATCC 25923; type: cell-based; conditions: for MIC: ATCC 25923
Excerpt: as §1, §2

[22] = tested on: Escherichia coli ATCC 25922; type: cell-based
Excerpt: as §1, §2

[23] = tested on: Bacillus cereus KCTC 2508; type: cell-based
Excerpt: as §1, §2

[24] = tested on: Acinetobacter baumannii KCTC 1017; type: cell-based; conditions: for MIC: KCTC 1017
Excerpt: as §1, §2

[25] = tested on: Listeria monocytogenes KCTC 3710; type: cell-based
Excerpt: as §1, §2

in vitro = type: cell-based; conditions: human, HaCaT keratinocyte cells, Cell Viability
Procedure: To evaluate the cytotoxicity of the peptides prepared in <Example 1>, toxicity was measured using a human keratinocyte cell line (HaCaT cell line, Dr. N. E. Fusenig, Heidelberg, Germany).
Specifically, HaCaT cells cultured in DMEM medium containing 10% fetal bovine serum (FBS) were seeded at a density of 2×10^5 cells/well into a microtiter plate and incubated for 24 hours. Then, peptides dCATH, dCATH-A1, dCATH-A2, dCATH-A3, dCATH-A4, dCATH-A5, dCATH-A6, and dCATH-A7 were added to each well at concentrations of 3.13, 6.25, 12.5, 25.0, 50.0, and 100.0 μM/well, followed by incubation for 24 hours in a 5% CO2 incubator. After 24 hours, 100 μL of a reaction solution containing 0.5 mg/mL MTT (Thiazolyl Blue Tetrazolium Bromide) dissolved in phosphate-buffered saline (PBS) was added to each well and reacted for 4 hours. After removing the supernatant, 200 μL of DMSO (dimethyl sulfoxide) was added to dissolve the formed MTT crystals, and absorbance at 570 nm was measured to determine cell viability.

Structure (SMILES)	MIC [1] [µM]	MIC [2] [µM]	MIC [3] [µM]	MIC [4] [µM]	MIC [5] [µM]	MIC [6] [µM]	MIC [7] [µM]	MIC [8] [µM]	MIC [9] [µM]	MIC [10] [µM]	MIC [11] [µM]	MIC [12] [µM]	MIC [13] [µM]	MIC [14] [µM]	MIC [15] [µM]	MIC [16] [µM]	MIC [17] [µM]	MIC [18] [µM]	MIC [19] [µM]	MIC [20] [µM]	further results
CC[C@H](C)[C@H](NC(=O)[C@H](C)NC(=O)[C@H](CCCCN)NC(=O)[C@H](CCCCN)NC(=O)[C@@H](NC(=O)[C@H](CC(C)C)NC(=O)[C@H](CCC(N)=O)NC(=O)[C@H](C)NC(=O)[C@H](C)NC(=O)[C@H](CCCNC(=N)N)NC(=O)[C@@H](N)CCCCN)C(C)C)C(=O)N[C@@H](CCCCN)C(=O)N[C@@H](CCCCN)C(=O)N[C@@H](Cc1ccc(O)cc1)C(=O)N[C@@H](CCCNC(=N)N)C(=O)N[C@@H](C)C(=O)N[C@@H](Cc1c[nH]c2ccccc12)C(=O)N[C@@H](CCCCN)C(N)=O [dCATH-A7, KRAAQLVKKAIKKYRAWK] (H-KRAAQLVKKAIKKYRAWK-NH2; N-terminus assumed)	1 (≈ 2.19 µg/mL)	1 (≈ 2.19 µg/mL)	1 (≈ 2.19 µg/mL)	1 (≈ 2.19 µg/mL)	1 (≈ 2.19 µg/mL)	1 (≈ 2.19 µg/mL)	1 (≈ 2.19 µg/mL)	1 (≈ 2.19 µg/mL)	1 (≈ 2.19 µg/mL)	1 (≈ 2.19 µg/mL)	1 (≈ 2.19 µg/mL)	1 (≈ 2.19 µg/mL)	1 (≈ 2.19 µg/mL)	1 (≈ 2.19 µg/mL)	1 (≈ 2.19 µg/mL)	1 (≈ 2.19 µg/mL)	0.5 (≈ 1.09 µg/mL)	1 (≈ 2.19 µg/mL)	1 (≈ 2.19 µg/mL)	8 (≈ 17.5 µg/mL)	MIC [21]: 0.5 µM (≈ 1.09 µg/mL); antimicrobial activity compared to the control peptide dCATH ([21]; against Staphylococcus aureus strains): notably superior activity; MIC [22]: 4 µM (≈ 8.74 µg/mL); MIC [23]: 1 µM (≈ 2.19 µg/mL); MIC [24]: 1 µM (≈ 2.19 µg/mL); antimicrobial activity compared to the control peptide dCATH ([24]; against Acinetobacter baumannii): significantly superior antimicrobial activity; MIC [25]: 4 µM (≈ 8.74 µg/mL); viability at 24 h, 3.13 µM (in vitro): 98%; viability at 24 h, 6.25 µM (in vitro): 99.2%; viability at 24 h, 12.5 µM (in vitro): 100%; viability at 24 h, 25 µM (in vitro): 100%; viability at 24 h, 50 µM (in vitro): 100%; viability at 24 h, 100 µM (in vitro): 98.4%
CC[C@H](C)[C@H](NC(=O)[C@H](C)NC(=O)[C@H](CC(C)C)NC(=O)[C@@H]1CCCN1C(=O)[C@@H](NC(=O)[C@H](CC(C)C)NC(=O)[C@H](CCC(N)=O)NC(=O)[C@H](C)NC(=O)[C@H](Cc1ccccc1)NC(=O)[C@H](CCCNC(=N)N)NC(=O)[C@@H](N)CCCCN)C(C)C)C(=O)N[C@@H](CCCCN)C(=O)N[C@H](C(=O)N[C@@H](Cc1ccc(O)cc1)C(=O)N[C@@H](CCCNC(=N)N)C(=O)N[C@@H](C)C(=O)N[C@@H](Cc1c[nH]c2ccccc12)C(=O)N[C@@H](CCCCN)C(=O)N[C@@H](CCCNC(=N)N)C(=O)N[C@@H](CCCNC(=N)N)C(N)=O)[C@@H](C)CC [dCATH-A2] (H-KRFAQLVPLAIKIYRAWKRR-NH2; N-terminus assumed)	1 (≈ 2.51 µg/mL)	1 (≈ 2.51 µg/mL)	1 (≈ 2.51 µg/mL)	1 (≈ 2.51 µg/mL)	1 (≈ 2.51 µg/mL)	1 (≈ 2.51 µg/mL)	2 (≈ 5.03 µg/mL)	2 (≈ 5.03 µg/mL)	1 (≈ 2.51 µg/mL)	2 (≈ 5.03 µg/mL)	1 (≈ 2.51 µg/mL)	1 (≈ 2.51 µg/mL)	1 (≈ 2.51 µg/mL)	1 (≈ 2.51 µg/mL)	1 (≈ 2.51 µg/mL)	1 (≈ 2.51 µg/mL)	1 (≈ 2.51 µg/mL)	1 (≈ 2.51 µg/mL)	2 (≈ 5.03 µg/mL)	2 (≈ 5.03 µg/mL)	MIC [21]: 1 µM (≈ 2.51 µg/mL); MIC [22]: 2 µM (≈ 5.03 µg/mL); MIC [23]: 1 µM (≈ 2.51 µg/mL); MIC [24]: 1 µM (≈ 2.51 µg/mL); MIC [25]: 2 µM (≈ 5.03 µg/mL); viability at 24 h, 3.13 µM (in vitro): 100%; viability at 24 h, 6.25 µM (in vitro): 100%; viability at 24 h, 12.5 µM (in vitro): 89%; viability at 24 h, 25 µM (in vitro): 30.7%; viability at 24 h, 50 µM (in vitro): 2.99%; viability at 24 h, 100 µM (in vitro): 2.16%

— patent US20260217765A1, “NOVEL ANTIMICROBIAL PEPTIDE DESIGNED FROM DUCK-DERIVED ANTIMICROBIAL PEPTIDE ANDUSE THEREOF” (INDUSTRY-ACADEMIC COOPERATION FOUNDATION, CHOSUN UNIVERSITY, priority 2023, published 2026)
